Data as given in ChEMBL document CHEMBL4346692, “Anti-PqsR compounds as next-generation antibacterial agents against Pseudomonas aeruginosa: A review” (Eur J Med Chem, 2019).

Tests used:
[1] = Agonist activity at Pseudomonas aeruginosa pqsA delta frame deletion mutant
[2] = target: T1, 2-heptyl-4(1H)-quinolone synthase PqsD (Pseudomonas aeruginosa, UniProt A0A0C7ACN7); experiment: Inhibition of Pseudomonas aeruginosa PqsD
T1 sequence (A0A0C7ACN7 whole entry): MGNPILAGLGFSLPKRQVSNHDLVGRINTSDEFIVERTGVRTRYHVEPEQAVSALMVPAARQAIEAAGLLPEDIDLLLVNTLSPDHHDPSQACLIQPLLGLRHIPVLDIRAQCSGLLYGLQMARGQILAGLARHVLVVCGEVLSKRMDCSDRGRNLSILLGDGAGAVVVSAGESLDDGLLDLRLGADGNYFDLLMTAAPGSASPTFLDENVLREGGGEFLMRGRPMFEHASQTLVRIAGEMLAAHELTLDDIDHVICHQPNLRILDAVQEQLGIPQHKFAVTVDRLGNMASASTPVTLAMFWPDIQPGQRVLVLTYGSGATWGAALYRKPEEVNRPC

[3] = target: T2, Transcriptional regulator MvfR (Pseudomonas aeruginosa PA14, UniProt A0A072ZLE6); experiment: Inhibition of Pseudomonas aeruginosa PqsR
T2 sequence (A0A072ZLE6 whole entry): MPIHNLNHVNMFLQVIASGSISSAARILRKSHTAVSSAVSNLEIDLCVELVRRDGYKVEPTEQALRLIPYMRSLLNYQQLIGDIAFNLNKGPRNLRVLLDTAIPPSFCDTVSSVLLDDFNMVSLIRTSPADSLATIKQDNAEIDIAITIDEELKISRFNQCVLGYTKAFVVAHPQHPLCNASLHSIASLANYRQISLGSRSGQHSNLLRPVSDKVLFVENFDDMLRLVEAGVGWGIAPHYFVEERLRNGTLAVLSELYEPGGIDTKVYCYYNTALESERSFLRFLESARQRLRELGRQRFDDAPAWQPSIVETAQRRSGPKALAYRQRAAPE

[4] = target: T3, Transcriptional regulator MvfR (Pseudomonas aeruginosa PA14) (UniProt A0A072ZLE6); experiment: Inhibition of Pseudomonas aeruginosa PqsR relative to control; settings: concentration not given here
T3 sequence (whole entry): T2 sequence (A0A072ZLE6 whole entry)

[5] = Half life in rat hepatic microsomes at 1 uM in presence of NADPH by UPLC-MS/MS analysis; format: ADME, Microsome; settings: liver microsomes
[6] = Half life in human hepatic microsomes at 1 uM in presence of NADPH by UPLC-MS/MS analysis; format: ADME, Microsome; settings: liver microsomes
[7] = target: T2, Transcriptional regulator MvfR; experiment: Antagonist activity at His6 -tagged Pseudomonas aeruginosa PqsR CBD domain expressed in Escherichia coli Rosetta 2 (DE3)
[8] = Antagonist activity at His6 -tagged Pseudomonas aeruginosa PqsR C87 mutant expressed in Escherichia coli BL21 (DE3) cells by surface plasma resonance method
[9] = Binding affinity to Pseudomonas aeruginosa His6/Sumo-tagged PqsR C87 mutant expressed in Escherichia coli BL21 (DE3) […] cells by surface plasma resonance method

**Q.** With `CCCCCCCc1[nH]c2ccccc2c(=O)c1O` as the compound, how does the EC50 [1] read?
**A.** 1.9 µM

**Q.** For `CCCCCCS(=O)(=O)c1nccc(-n2ccnn2)n1`, which IC50 [2] is on record?
**A.** 1.7 µM

**Q.** And the IC50 [3]?
**A.** 50 µM

**Q.** What about the inhibition [4] of the same compound?
**A.** 47%

**Q.** For `O=CN1N=C(c2ccccc2)CC1c1cccc(Nc2ccnc3cc(Cl)ccc23)c1` (centres undefined), which half-life at 1 µM [5] is on record?
**A.** < 30 min

**Q.** And the half-life at 1 µM [6]?
**A.** < 30 min

**Q.** With `CCCCCCCCCc1nc2cc(F)ccc2c(=O)n1OC` as the compound, how does the EC50 [1] read?
**A.** 2.2 µM

**Q.** For `CCCCCCCCCc1nc2cc(Cl)ccc2c(=O)n1N`, which IC50 [7] is on record?
**A.** 5 µM

**Q.** Which IC50 [8] does the source give for `CC(C)(C)c1ccc(C(=O)NO)cc1` here?
**A.** 23.6 µM

**Q.** Which IC50 [7] does the source give for `CCCCCCCCCc1nc2cc(F)ccc2c(=O)n1N` here?
**A.** 3.9 µM

**Q.** Which Kd [9] does the source give for `CCCCCCCc1cc(=O)c2cc(C(F)(F)F)ccc2[nH]1` here?
**A.** 0.057 µM

**Q.** For `CCCCCCCCCc1nc2cc(F)c(F)cc2c(=O)n1N`, which IC50 [7] is on record?
**A.** 1.2 µM

**Q.** For `CS(=O)(=O)c1nccc(-n2cnnn2)n1`, which IC50 [2] is on record?
**A.** 21 µM

**Q.** What about the IC50 [3] of the same compound?
**A.** 15 µM
